ChEMBL document CHEMBL3885861, “Open TG-GATES”

Species: Rattus norvegicus
Experiment: Open TG-GATES - Regimen: Single
Assay type: toxicity, organism-based, Sprague-Dawley
Design: regimen Single, gender Male, age 6 weeks
Conditions: in vivo, po, 250 mg/kg, route gavage, dose level High; for APTT / Bas / Eos / Fbg / Hb / Ht / Lym / MCH / MCHC / MCV / Mono / Neu / PT / Plat / RBC / Ret / WBC: tissue Blood; for KIDNEY_L / KIDNEY_R / KIDNEY_TOTAL: tissue Kidney; for LIVER: tissue Liver; for A/G / ALP / ALT / AST / BUN / CRE / Ca / Cl / DBIL / GLC / IP / K / LDH / Na / PL / RALB / TBIL / TC / TG / TP / gamma-GTP: tissue Plasma

`CCSCC[C@H](N)C(=O)O` [ETHIONINE] gave a TERMINAL_BW (3 h) of 215.1 g, an APTT (3 h) of 18.5 s and a Bas (3 h) of 0%. For the same compound, the Eos (3 h) was 1%, the Fbg (3 h) was 205.8 mg/dL and the Hb (3 h) was 13.6 g/dL. It also gave a Ht (3 h) of 40%, a Lym (3 h) of 74% and an MCH (3 h) of 21.4 pg. The MCHC (3 h) was 34%, the MCV (3 h) was 62.9 fL and the Mono (3 h) was 2.6%. For the same compound, the Neu (3 h) was 20.6%, the PT (3 h) was 12.5 s and the Plat (3 h) was 117.7 x10_4/uL. The RBC (3 h) was 635.6 x10_4/ul, the Ret (3 h) was 7% and the WBC (3 h) was 90.5 x10_2/uL. The KIDNEY_L (3 h) was 1 g, the KIDNEY_R (3 h) was 1 g and the KIDNEY_TOTAL (3 h) was 2 g. The LIVER (3 h) was 9.7 g, the A/G (3 h) was 1.4 and the ALP (3 h) was 1004.6 IU/L. The ALT (3 h) was 37.6 IU/L, the AST (3 h) was 68 IU/L and the BUN (3 h) was 10.6 mg/dL. The CRE (3 h) was 0.4 mg/dL, the Ca (3 h) was 10.3 mg/dL and the Cl (3 h) was 100.8 meq/L. The DBIL (3 h) was 0.054 mg/dL, the GLC (3 h) was 210.4 mg/dL and the IP (3 h) was 9.8 mg/dL. The K (3 h) was 3.8 meq/L, the LDH (3 h) was 183.6 IU/L and the Na (3 h) was 139.6 meq/L. The PL (3 h) was 127.8 mg/dL, the RALB (3 h) was 3.2 g/dL and the TBIL (3 h) was 0.1 mg/dL. For the same compound, the TC (3 h) was 71 mg/dL, the TG (3 h) was 43.4 mg/dL and the TP (3 h) was 5.4 g/dL. The gamma-GTP (3 h) was 1.2 IU/L, the TERMINAL_BW (6 h) was 215.3 g and the APTT (6 h) was 19.4 s. For the same compound, the Bas (6 h) was 0%, the Eos (6 h) was 1% and the Fbg (6 h) was 203.2 mg/dL. The Hb (6 h) was 13 g/dL, the Ht (6 h) was 38.2% and the Lym (6 h) was 76%. For the same compound, the MCH (6 h) was 21.4 pg, the MCHC (6 h) was 34.1% and the MCV (6 h) was 62.6 fL. It also gave a Mono (6 h) of 2.8%, a Neu (6 h) of 19.2% and a PT (6 h) of 13.1 s. The Plat (6 h) was 122.2 x10_4/uL, the RBC (6 h) was 610.4 x10_4/ul and the Ret (6 h) was 7.1%. The WBC (6 h) was 98.9 x10_2/uL, the KIDNEY_L (6 h) was 1 g and the KIDNEY_R (6 h) was 1 g. The KIDNEY_TOTAL (6 h) was 1.9 g, the LIVER (6 h) was 9.2 g and the A/G (6 h) was 1.3. It also gave an ALP (6 h) of 809.2 IU/L, an ALT (6 h) of 33.8 IU/L and an AST (6 h) of 64.2 IU/L. It also gave a BUN (6 h) of 10.4 mg/dL, a CRE (6 h) of 0.4 mg/dL and a Ca (6 h) of 10.2 mg/dL. For the same compound, the Cl (6 h) was 102 meq/L, the DBIL (6 h) was 0.058 mg/dL and the GLC (6 h) was 198.8 mg/dL. It also gave an IP (6 h) of 9.6 mg/dL, a K (6 h) of 3.9 meq/L and an LDH (6 h) of 213.8 IU/L. For the same compound, the Na (6 h) was 139 meq/L, the PL (6 h) was 116.6 mg/dL and the RALB (6 h) was 3 g/dL. For the same compound, the TBIL (6 h) was 0.1 mg/dL, the TC (6 h) was 64.6 mg/dL and the TG (6 h) was 44.4 mg/dL. It also gave a TP (6 h) of 5.3 g/dL, a gamma-GTP (6 h) of 1.6 IU/L and a TERMINAL_BW (9 h) of 212.6 g. The APTT (9 h) was 20.5 s, the Bas (9 h) was 0% and the Eos (9 h) was 1%. For the same compound, the Fbg (9 h) was 214.2 mg/dL, the Hb (9 h) was 13.3 g/dL and the Ht (9 h) was 39.1%. The Lym (9 h) was 73.6%, the MCH (9 h) was 21.2 pg and the MCHC (9 h) was 34.2%. It also gave an MCV (9 h) of 62 fL, a Mono (9 h) of 3.2% and a Neu (9 h) of 21.2%. The PT (9 h) was 13.3 s, the Plat (9 h) was 127.2 x10_4/uL and the RBC (9 h) was 630.2 x10_4/ul. It also gave a Ret (9 h) of 7%, a WBC (9 h) of 72.8 x10_2/uL and a KIDNEY_L (9 h) of 1 g. The KIDNEY_R (9 h) was 1 g, the KIDNEY_TOTAL (9 h) was 2 g and the LIVER (9 h) was 9 g. For the same compound, the A/G (9 h) was 1.6, the ALP (9 h) was 774 IU/L and the ALT (9 h) was 29.8 IU/L. For the same compound, the AST (9 h) was 58.4 IU/L, the BUN (9 h) was 8 mg/dL and the CRE (9 h) was 0.3 mg/dL. It also gave a Ca (9 h) of 10.4 mg/dL, a Cl (9 h) of 101.4 meq/L and a DBIL (9 h) of 0.072 mg/dL. The GLC (9 h) was 199 mg/dL, the IP (9 h) was 9.3 mg/dL and the K (9 h) was 3.6 meq/L. It also gave an LDH (9 h) of 195 IU/L, a Na (9 h) of 139.6 meq/L and a PL (9 h) of 111.2 mg/dL. For the same compound, the RALB (9 h) was 3.4 g/dL, the TBIL (9 h) was 0.1 mg/dL and the TC (9 h) was 57.2 mg/dL. It also gave a TG (9 h) of 77.4 mg/dL, a TP (9 h) of 5.6 g/dL and a gamma-GTP (9 h) of 1.2 IU/L. It also gave a TERMINAL_BW (24 h) of 221.6 g, an APTT (24 h) of 22 s and a Bas (24 h) of 0%. The Eos (24 h) was 1%, the Fbg (24 h) was 210.4 mg/dL and the Hb (24 h) was 13.9 g/dL. The Ht (24 h) was 41%, the Lym (24 h) was 74.4% and the MCH (24 h) was 21.3 pg. For the same compound, the MCHC (24 h) was 34%, the MCV (24 h) was 62.5 fL and the Mono (24 h) was 5.8%. The Neu (24 h) was 16.8%, the PT (24 h) was 14.4 s and the Plat (24 h) was 116 x10_4/uL. It also gave an RBC (24 h) of 655 x10_4/ul, a Ret (24 h) of 6.3% and a WBC (24 h) of 94.1 x10_2/uL. It also gave a KIDNEY_L (24 h) of 1 g, a KIDNEY_R (24 h) of 1 g and a KIDNEY_TOTAL (24 h) of 2 g. For the same compound, the LIVER (24 h) was 10.6 g, the A/G (24 h) was 1.6 and the ALP (24 h) was 988 IU/L. For the same compound, the ALT (24 h) was 39 IU/L, the AST (24 h) was 74.4 IU/L and the BUN (24 h) was 16 mg/dL. For the same compound, the CRE (24 h) was 0.4 mg/dL, the Ca (24 h) was 10.6 mg/dL and the Cl (24 h) was 101.4 meq/L. It also gave a DBIL (24 h) of 0.1 mg/dL, a GLC (24 h) of 198.2 mg/dL and an IP (24 h) of 8.8 mg/dL. It also gave a K (24 h) of 3.7 meq/L, an LDH (24 h) of 211 IU/L and a Na (24 h) of 140 meq/L. It also gave a PL (24 h) of 122.6 mg/dL, an RALB (24 h) of 3.4 g/dL and a TBIL (24 h) of 0.2 mg/dL. The TC (24 h) was 47.2 mg/dL, the TG (24 h) was 144 mg/dL and the TP (24 h) was 5.6 g/dL. For the same compound, the gamma-GTP (24 h) was 1.2 IU/L.
